Values after ≈ are worked out from the molar mass of the structure shown. Where two headings read alike, the source gives them in different places.
What was measured:
[1] = tested on: Escherichia coli (E.coli); assay: Antimicrobial activity of a METAC solution (optical density OD600); assay type: cell-based
[2] = at 20 °C; Flask method; cited from earlier work
[3] = at 20 °C; Column elution; cited from earlier work

SMILES	METAC required to stop E.coli growth ([1]; METAC in solution, OD600, Fig. 8b) [mg/mL]	antimicrobial activity ([1]; METAC monomer as such, not bound to a substrate)	water solubility [2] [µg/mL]	water solubility [3] [µg/mL]
C=C(C)C(=O)OCC[N+](C)(C)C.[Cl-] [METAC, [2-(methacryloyloxy)ethyl]trimethylammonium chloride]	40	low antimicrobial activity		
Cc1cc(C)c(C(=O)P(=O)(c2ccccc2)c2ccccc2)c(C)c1 [TPO, diphenyl(2,4,6-trimethylbenzoyl)phosphine oxide]			3.3 (≈ 9.47 µM)	11.9 (≈ 34.2 µM)
